Data published in PMC11605156, “Triterpenoids from Ganoderma lucidum inhibit cytochrome P450 enzymes interfering with the metabolic process of specific clinical drugs” (Frontiers in Pharmacology, 2024).

Tests used:
CYP1A2 = target: T1, CYP1A2 (Homo sapiens, UniProt P05177); test: CYP1A2 inhibition, probe/drug metabolism in human liver microsomes (LC-MS/MS); details: for IC50: IC50 against CYP 1A2, substrate phenacetin 40 μM, HLM; for activity at 30 min: human, human liver microsomes, pH 7.4, probe phenacetin 40 μM, Residual activity (%) CYP1A2, HLM 0.5 mg/mL, phenacetin 40 μM
T1 sequence (P05177 1-516): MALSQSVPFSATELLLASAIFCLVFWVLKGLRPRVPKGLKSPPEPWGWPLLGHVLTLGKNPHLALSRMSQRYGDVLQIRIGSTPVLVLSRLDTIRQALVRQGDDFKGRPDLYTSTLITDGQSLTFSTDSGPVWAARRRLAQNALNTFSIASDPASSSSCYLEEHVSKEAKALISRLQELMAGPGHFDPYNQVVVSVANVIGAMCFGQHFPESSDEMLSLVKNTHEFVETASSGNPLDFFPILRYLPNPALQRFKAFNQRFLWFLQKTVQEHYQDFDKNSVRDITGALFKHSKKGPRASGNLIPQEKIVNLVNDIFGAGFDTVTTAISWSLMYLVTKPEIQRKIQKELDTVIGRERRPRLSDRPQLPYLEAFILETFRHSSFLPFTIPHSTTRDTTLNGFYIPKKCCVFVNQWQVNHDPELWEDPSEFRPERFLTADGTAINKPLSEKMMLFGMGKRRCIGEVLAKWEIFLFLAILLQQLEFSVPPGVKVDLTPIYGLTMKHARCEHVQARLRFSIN
Procedure: (§1) The total volume of the in vitro metabolic incubation system is 200 μL. The probe substrate concentration in the system is shown in Supplementary Table S1. […] The reaction sample was preheated in a constant temperature mixer at 37°C. Then NADP^+ was added to the system to initiate the reaction. The reaction time is 30 min, and 100 μL acetonitrile will be added on time to quickly terminate the reaction, followed by centrifugation at 4°C and 20,000 g for 20 min. The supernatant was analyzed using liquid chromatography tandem mass spectrometry (LC-MS/MS), and the activity of CYP enzymes was evaluated by the generation of probe metabolites. The mass spectrometry information of probe substrates is shown in Supplementary Table S3.
(§2) The isolated triterpenoids (1–66) were used to establish a compounds library. The inhibitory effects of 66 triterpenoids from G. lucidum on seven subtypes of CYP enzymes (CYP1A2, 2A6, 2D6, 2B6, 2C9, 2C19, 3A4) were evaluated followed the above-mentioned experimental procedures.
(§3) For 16 clinical drugs metabolized by CYP enzymes, potential DDI studies were conducted on triterpenoids (6, 25) of G. lucidum, and IC50 values were measured.
(§4) Clinical drugs: Phenacetin, melatonin, clozapine and riluzole are metabolized by CYP1A2. Bupropion, artemisinin, efavirenz and sertraline are metabolized by CYP2B6. Diclofenac, valsartan, glimepiride and glibenclamide are metabolized by CYP2C9. Midazolam, imatinib, simvastatin and diltiazem are metabolized by CYP3A4.
(§5) Table S1. The information of probes for CYPs activity assay
(§6) Table S2. Information of clinical drugs

CYP2D6 = CYP2D6 (Homo sapiens, UniProt P10635); test: CYP2D6 inhibition, dextromethorphan probe in human liver microsomes; details: human, human liver microsomes, pH 7.4, probe dextromethorphan 5 μM, Residual activity (%) CYP2D6, HLM 0.5 mg/mL
Chain of CYP2D6 (P10635 whole entry): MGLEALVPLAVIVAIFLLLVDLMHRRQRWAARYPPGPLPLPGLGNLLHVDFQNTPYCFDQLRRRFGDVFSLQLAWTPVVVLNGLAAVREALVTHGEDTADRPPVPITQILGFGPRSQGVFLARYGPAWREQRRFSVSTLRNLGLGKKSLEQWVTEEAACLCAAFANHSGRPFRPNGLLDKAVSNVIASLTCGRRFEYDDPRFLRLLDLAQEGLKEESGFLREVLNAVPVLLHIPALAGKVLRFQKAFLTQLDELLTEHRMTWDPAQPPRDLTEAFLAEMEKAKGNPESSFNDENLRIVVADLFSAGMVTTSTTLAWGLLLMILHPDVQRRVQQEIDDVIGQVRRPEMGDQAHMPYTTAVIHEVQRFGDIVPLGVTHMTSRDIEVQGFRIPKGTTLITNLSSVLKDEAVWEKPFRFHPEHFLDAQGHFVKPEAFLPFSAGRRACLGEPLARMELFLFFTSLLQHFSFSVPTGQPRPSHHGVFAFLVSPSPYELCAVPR
Procedure: as §1, §2, §5

CYP3A4 = CYP3A4 (Homo sapiens, UniProt P08684); test: CYP3A4 inhibition, probe/drug metabolism in human liver microsomes; details: human, human liver microsomes, pH 7.4, probe midazolam 5 μM, Residual activity (%) CYP3A4, HLM 0.5 mg/mL, midazolam 5 μM, 30 min
Chain of CYP3A4 (P08684 whole entry): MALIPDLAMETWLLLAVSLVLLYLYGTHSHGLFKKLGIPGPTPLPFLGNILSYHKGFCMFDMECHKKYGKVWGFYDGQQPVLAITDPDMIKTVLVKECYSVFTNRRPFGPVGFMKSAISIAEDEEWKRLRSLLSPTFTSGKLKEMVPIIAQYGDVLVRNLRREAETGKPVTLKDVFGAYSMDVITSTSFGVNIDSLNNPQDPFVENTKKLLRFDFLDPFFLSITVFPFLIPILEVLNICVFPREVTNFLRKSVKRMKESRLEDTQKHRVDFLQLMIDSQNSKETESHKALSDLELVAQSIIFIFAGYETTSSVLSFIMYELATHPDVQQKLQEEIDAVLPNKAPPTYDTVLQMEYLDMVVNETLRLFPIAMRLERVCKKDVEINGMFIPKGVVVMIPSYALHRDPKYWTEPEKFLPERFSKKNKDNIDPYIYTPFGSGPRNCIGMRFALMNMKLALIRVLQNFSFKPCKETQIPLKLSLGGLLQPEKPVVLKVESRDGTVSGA
Procedure: as §1, §2, §3, §4, §5, §6

CYP2A6 = target: T2, CYP2A6 (Homo sapiens, UniProt P11509); test: CYP2A6 inhibition, coumarin probe in human liver microsomes; details: human, human liver microsomes, pH 7.4, probe coumarin 2 μM, Residual activity (%) CYP2A6, HLM 0.5 mg/mL
T2 sequence (P11509 1-494): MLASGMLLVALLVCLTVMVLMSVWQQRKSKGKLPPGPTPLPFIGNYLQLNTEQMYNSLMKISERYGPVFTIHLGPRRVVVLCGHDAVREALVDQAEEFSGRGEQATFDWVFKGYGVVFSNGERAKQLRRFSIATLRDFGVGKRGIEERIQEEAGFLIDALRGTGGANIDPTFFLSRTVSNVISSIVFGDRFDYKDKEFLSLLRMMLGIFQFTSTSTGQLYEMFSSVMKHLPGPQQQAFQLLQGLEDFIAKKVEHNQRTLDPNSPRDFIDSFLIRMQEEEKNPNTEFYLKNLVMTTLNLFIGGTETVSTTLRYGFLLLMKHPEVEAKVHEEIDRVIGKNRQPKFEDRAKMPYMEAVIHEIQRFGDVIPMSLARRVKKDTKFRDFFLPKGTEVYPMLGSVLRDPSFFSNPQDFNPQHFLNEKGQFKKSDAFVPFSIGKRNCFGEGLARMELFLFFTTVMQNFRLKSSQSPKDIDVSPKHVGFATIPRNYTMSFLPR
Procedure: as §1, §2, §5

CYP2B6 = target: T3, CYP2B6 (Homo sapiens, UniProt P20813); test: CYP2B6 inhibition, probe/drug metabolism in human liver microsomes; details: human, human liver microsomes, pH 7.4, probe bupropion 75 μM, Residual activity (%) CYP2B6, HLM 0.5 mg/mL, bupropion 75 μM, 30 min
T3 sequence (P20813 1-491): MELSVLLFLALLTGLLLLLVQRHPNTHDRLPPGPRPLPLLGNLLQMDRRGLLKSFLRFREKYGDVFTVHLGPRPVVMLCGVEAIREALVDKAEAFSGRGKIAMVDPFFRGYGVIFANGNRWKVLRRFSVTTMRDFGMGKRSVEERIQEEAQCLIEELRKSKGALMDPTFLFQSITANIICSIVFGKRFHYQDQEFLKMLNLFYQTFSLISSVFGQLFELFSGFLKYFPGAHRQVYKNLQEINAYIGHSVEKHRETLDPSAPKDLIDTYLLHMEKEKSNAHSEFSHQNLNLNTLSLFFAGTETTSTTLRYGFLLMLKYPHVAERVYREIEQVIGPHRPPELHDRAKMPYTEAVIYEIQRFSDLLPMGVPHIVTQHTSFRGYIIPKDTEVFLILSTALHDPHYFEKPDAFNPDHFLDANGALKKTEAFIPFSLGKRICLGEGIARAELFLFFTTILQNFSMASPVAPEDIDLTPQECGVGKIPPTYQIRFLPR
Procedure: as §1, §2, §3, §4, §5, §6

CYP2C9 = CYP2C9 (Homo sapiens, UniProt P11712); test: CYP2C9 inhibition, probe/drug metabolism in human liver microsomes; details: human, human liver microsomes, pH 7.4, probe diclofenac 4 μM, Residual activity (%) CYP2C9, HLM 0.5 mg/mL, diclofenac 4 μM, 30 min
Chain of CYP2C9 (P11712 whole entry): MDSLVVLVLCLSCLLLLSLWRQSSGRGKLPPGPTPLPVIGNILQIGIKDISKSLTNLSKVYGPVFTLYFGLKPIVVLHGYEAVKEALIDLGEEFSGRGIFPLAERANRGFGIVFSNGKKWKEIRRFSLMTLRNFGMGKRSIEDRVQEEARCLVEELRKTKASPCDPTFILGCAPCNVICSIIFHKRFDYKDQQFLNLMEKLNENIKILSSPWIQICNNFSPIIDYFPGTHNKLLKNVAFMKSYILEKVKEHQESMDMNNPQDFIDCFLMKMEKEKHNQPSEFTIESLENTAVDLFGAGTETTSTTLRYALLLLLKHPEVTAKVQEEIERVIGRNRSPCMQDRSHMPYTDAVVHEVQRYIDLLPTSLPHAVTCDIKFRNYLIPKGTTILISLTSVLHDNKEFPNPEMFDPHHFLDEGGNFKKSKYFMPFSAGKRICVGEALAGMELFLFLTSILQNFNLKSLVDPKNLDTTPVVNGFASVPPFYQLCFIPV
Procedure: as §1, §2, §3, §4, §5, §6

CYP2C19 = CYP2C19 (Homo sapiens, UniProt P33261); test: CYP2C19 inhibition, S-mephenytoin probe in human liver microsomes; details: human, human liver microsomes, pH 7.4, probe S-mephenytoin 50 μM, Residual activity (%) CYP2C19, HLM 0.5 mg/mL, S-mephenytoin 50 μM, 30 min
Chain of CYP2C19 (P33261 whole entry): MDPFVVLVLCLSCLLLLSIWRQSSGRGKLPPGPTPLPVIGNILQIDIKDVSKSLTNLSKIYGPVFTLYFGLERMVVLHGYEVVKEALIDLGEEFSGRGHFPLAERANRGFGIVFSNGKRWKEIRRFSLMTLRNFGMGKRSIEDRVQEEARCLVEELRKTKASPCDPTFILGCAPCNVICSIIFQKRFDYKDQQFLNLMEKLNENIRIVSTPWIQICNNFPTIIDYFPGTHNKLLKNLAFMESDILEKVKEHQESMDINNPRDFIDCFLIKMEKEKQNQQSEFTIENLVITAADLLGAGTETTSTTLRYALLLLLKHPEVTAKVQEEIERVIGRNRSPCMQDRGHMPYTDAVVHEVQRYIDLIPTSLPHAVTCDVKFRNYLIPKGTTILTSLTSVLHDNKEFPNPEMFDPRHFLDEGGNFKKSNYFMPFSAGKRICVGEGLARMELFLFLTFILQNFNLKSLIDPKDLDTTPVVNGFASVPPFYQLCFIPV
Procedure: as §1, §2, §5

| SMILES | IC50 (CYP1A2) [µM] | activity at 30 min (CYP1A2) [%] | activity at 30 min (CYP2D6) [%] | activity at 30 min (CYP3A4) [%] | activity at 30 min (CYP2A6) [%] | activity at 30 min (CYP2B6) [%] | activity at 30 min (CYP2C9) [%] | activity at 30 min (CYP2C19) [%] |
| --- | --- | --- | --- | --- | --- | --- | --- | --- |
| CC(=CC(=O)CC(C)C(=O)O)C1CC(=O)C2(C)C3=C(C(=O)CC12C)C1(C)CCC(=O)C(C)(C)C1CC3O (centres unmarked) [Compound 51] | 38.6 ± 9.4 | 58 ± 2.08 | 89.5 ± 3.3 | 94.1 ± 7.18 | 86 ± 4.07 | 77.8 ± 7.96 | 99.8 ± 6.62 | 110 ± 3.54 |
| CC(CC(=O)CC(C)C1CC(O)C2(C)C3=C(C(=O)CC12C)C1(C)CCC(=O)C(C)(C)C1CC3=O)C(=O)O (centres unmarked) [Compound 45] | 18.2 ± 1.33 | 48.2 ± 4.71 | 93.7 ± 8.49 | – | 90.1 ± 2.87 | 83 ± 3.05 | 73.5 ± 6.44 | 70.3 ± 4.05 |

The next lines start with the values.

| IC50 (CYP1A2) [µM] | activity at 30 min (CYP1A2) [%] | activity at 30 min (CYP2D6) [%] | activity at 30 min (CYP3A4) [%] | activity at 30 min (CYP2A6) [%] | activity at 30 min (CYP2B6) [%] | activity at 30 min (CYP2C9) [%] | activity at 30 min (CYP2C19) [%] | SMILES |
| --- | --- | --- | --- | --- | --- | --- | --- | --- |
| 21.8 ± 1.15 | 54.4 ± 8.91 | 99.4 ± 3.9 | 97.6 ± 2.29 | 91.89 ± 0.88 | 76.6 ± 7.68 | 90 ± 1.36 | 85.5 ± 2.57 | CC(=CC(=O)CC(C)C(=O)O)C1CC(=O)C2(C)C3=C(C(=O)C(O)C12C)C1(C)CCC(O)C(C)(C)C1CC3=O (centres unmarked) [Compound 17] |
| 34.2 ± 6.9 | 56 ± 0.69 | 86.9 ± 1.32 | 82.8 ± 1.1 | 72.3 ± 1.11 | 84.1 ± 0.94 | 92.5 ± 0.99 | 109 ± 6.43 | CC(=O)OC1C(=O)C2=C(C(=O)CC3C2(C)CCC(O)C3(C)C)C2(C)C(=O)CC(C3(C)CCC(=O)O3)C12C (centres unmarked) [Compound 56] |
| 11.3 ± 0.31 | 30.2 ± 3.05 | 76.9 ± 0.9 | 90.8 ± 3.82 | 79.1 ± 0.81 | 91.6 ± 8.64 | 94.8 ± 5.64 | 68.6 ± 7.25 | CC(CC(=O)CC(C)C1CC(=O)C2(C)C3=C(C(=O)CC12C)C1(C)CCC(=O)C(C)(CO)C1CC3O)C(=O)O (centres unmarked) [Compound 8] |
| 21.4 ± 5.21 | 43.8 ± 4.18 | 103 ± 3.3 | 96.8 ± 4.2 | 83.7 ± 8.67 | 89.1 ± 3.71 | 62.8 ± 2.72 | 79.3 ± 0.38 | CC(CC(=O)CC(C)C1CC(O)C2(C)C3=C(C(=O)CC12C)C1(C)CCC(=O)C(C)(C)C1CC3)C(=O)O (centres unmarked) [Compound 42] |
